pIC50: −log10 of the molar value. “And” between values parts separate entries of the source, which are not always exact repeats. Equal entries are not always repeated.

One data set deals with Src (Homo sapiens, UniProt P12931). The data set can be described thus: c-Src Kinase Assay (ELISA). Type of data set: biochemical. As for the experimental part: Inhibitors of Src (partially purified preparation purchased from Upstate Biotechnologies) tyrosine kinase activity are analyzed in an ELISA format. […] Horseradish Peroxidase (HRP)-conjugated anti-phosphotyrosine is used to detect phosphorylated peptide via a color reaction. Conditions recommended by the manufacturer are employed.
Reaction conditions: Five microliter aliquots of each compound prepared fresh at the time of the assay are added as a solution in lOmM HEPES pH 7.5, 10% DMSO to the reaction well. Thirty-five microliters of reaction mix containing Src, buffer and peptide/bovine serum albumin mix are added to the compound wells and incubated at 30° C. for 10 minutes (reaction buffer: 5 OmM TrisHCI pH 7.5, l0 mM MgCl2, O.lmM EGTA, 0.5 mM Na3 VO4)-1H-. The reaction is started by addition of 10 microliters of ATP, incubated at 30° C. for 1 hour, and stopped by addition of 20 microliters of 0.5 M EDTA. The reaction mixture with the phosphorylated peptide is then transferred to a streptavidin-coated microtiter plate (provided in the kit) and allowed to bind for 20 minutes. IUnbound peptide and reaction mixture is decanted and the plate is washed with PBS six times. HRP-conjugated phosphotyrosine antibody supplied in the kit is incubated with the plate for one hour, then decanted. The plate is again washed with PBS six times.
Activity is determined as % inhibition as calculated by the formula: (1−Abs/Abs(max) ) ×100=% inhibition.

Data set [1] deals with Rat2 fibroblasts stably transformed with v-Src/Hu c-Src fusion gene (Homo sapiens, UniProt P12931, cells depend on it, form not given). The data set can be described thus: Anchorage Independent Src-transformed Fibroblast Proliferation Assay. To be noted: suspension growth, MTS reagent on Day 5; read-out: anch-indep src-tx fib IC50. It is filed as cell-based, Rat. As for the experimental part:
Anchorage Independent Src-transformed Fibroblast Proliferation Assay
Rat2 fibroblasts stably transformed with a plasmid containing a CMV promotor controlled v-Src/Hu c-Src fusion gene in which the catalytic domain of human c-Src was inserted in place of the v-Src catalytic domain in the v-Src gene are used for the measurement of src dependent suspension growth. […] Multiple entries for a given compound indicate that it was tested multiple times.

At Src, “4-(2,4-Dichloro-5-methoxyanilino)-7-(3-formyl)-3-quinolinecarbonitrile [Example 112]” gave a pIC50 of 7.44. Besides, the GI50 in data set [1] came to 7300 nM.

With “4-[(2,4-Dichloro-5-methoxyphenyl) amino]-7-[4-(4-morpholinyl) phenyl]-3-quinolinecarbonitrile [Example 128]”, the pIC50 on Src was 8.49. Moreover, the GI50 in data set [1] worked out at 640 nM.

As to `COc1cc(Nc2c(C#N)cnc3cc(/C=C/c4ccccn4)ccc23)c(Cl)cc1Cl` [Example 3, 4-(2,4-Dichloro-S-methoxyanilino)-7-[(E)-2-(2-pyrdinyl)ethenyl]-3-quinoline-carbonitrile], the pIC50 against Src was 7.96.

For the compound `COc1cc(Nc2c(C#N)cnc3cc(-c4ccc(C=O)s4)ccc23)c(Cl)cc1Cl` [Example 52, 4-(2,4-dichloro-5-methoxyanilino)-7-(5-formyl-2-thienyl)-3-quinolinecarbonitrile], the melting point is > 300 °C (dec.). This compound also showed a pIC50 against Src of 7.96.

The compound `COc1cc(Nc2c(C#N)cnc3cc(-n4cccc4)c(OC)cc23)c(Cl)cc1Cl` [Example 59, 4-(2,4-Dichloro-5-methoxyanilino)-6-methoxy-7-(1H-pyrrol-1-yl)-3-quinolinecarbonitrile] yielded a melting point of 229 to 230 °C. Besides, the pIC50 against Src is 7.92 and 7.82.

On to `COc1cc(Nc2c(C#N)cnc3cc(-c4cccn4C(=O)OC(C)(C)C)ccc23)c(Cl)cc1Cl` [Example 164, tert-butyl 2-[3-cyano-4-(2,4-dichloro-5-methoxyanilino)-7-quinolinyl]pyrrole-1-carboxylate], for which the melting point was 135 °C (dec.). In data set [1], the GI50 was above 10000 nM.

In turn, `COc1cc(Nc2c(C#N)cnc3cc(C#CCN4CCOCC4)c(OC)cc23)c(Cl)cc1Cl` [Example 166, 4-(2,4-Dichloro-5-methoxyanilino)-6-methoxy-7-[3-(4-morpholinyl)-1-propynyl]-3-quinolinecarbonitrile] returned a melting point of 105 to 108 °C. Moreover, the GI50 in data set [1] worked out at 720 nM.

On to `COc1cc(Nc2c(C#N)cnc3cc(-c4csc(CN5CCOCC5)c4)ccc23)c(C)cc1Cl` [Example 167, 4-(4-Chloro-5-methoxy-2-methylanilino)-7-[5-(4-morpholinylmethyl)-3-thienyl]-3-quinolinecarbonitrile], for which the melting point was > 108 °C (dec.). The GI50 in data set [1] worked out at 900 nM.

Take `COc1cc(Nc2c(C#N)cnc3cc(-c4cccc(N)c4)ccc23)c(Cl)cc1Cl` [Example 174, 7-(3-Aminophenyl)-4-[(2,4-dichloro-5-methoxyphenyl)amino]-3-quinolinecarbonitrile]: the melting point was in the range of 221 to 222 °C. For the same compound, the GI50 in data set [1] came out at 5600 nM.

Consider `COC(=O)C1CCN(Cc2ccc(-c3ccc4c(Nc5cc(OC)c(Cl)cc5Cl)c(C#N)cnc4c3)nc2)CC1` [Example 176, 1-{6-[3-Cyano-4-(2,4-dichloro-5-methoxyphenylamino)-quinolin-7-yl]-pyridin-3-ylmethyl}-piperidine-4-carboxylic acid methyl ester], for which the melting point lay within 186 to 188 °C. The GI50 in data set [1] was determined as 90 nM.

`CCN1CCN(c2ccc(-c3ccc4c(Nc5cc(OC)c(Cl)cc5Cl)c(C#N)cnc4c3)nc2)CC1` [Example 179, 4-[(2,4-Dichloro-5-methoxyphenyl)amino]-7-[5-(4-ethyl-1-piperazinyl)-2-pyridinyl]-3-quinolinecarbonitrile] returned a melting point of 232 to 234 °C. Moreover, in data set [1], the GI50 turned out to be 270 nM.

In turn, `COc1cc(Nc2c(C#N)cnc3cc(-c4cnc(N5CCOCC5)nc4)ccc23)c(Cl)cc1Cl` [Example 186, 4-(2,4-Dichloro-5-methoxyanilino)-7-[2-(4-morpholinyl)-5-pyrimidinyl]-3-quinolinecarbonitrile] registered a melting point above 260 °C. For the same compound, in data set [1], the GI50 was above 10000 nM.

Compound `COc1cc(Nc2c(C#N)cnc3cc(-c4ccc(Oc5ccc(CN6CCOCC6)cc5)nc4)ccc23)c(Cl)cc1Cl` [Example 193, 4-(2,4-Dichloro-5-methoxyanilino)-7-{6-[4-(4-morpholinylmethyl)phenoxy]-3-pyridinyl)-3-quinolinecarbonitrile] came in with a melting point of 176 to 178 °C. In addition, in data set [1], the GI50 is above 10000 nM.

The compound `COc1ccc(-c2ccc3c(Nc4cc(OC)c(Cl)cc4Cl)c(C#N)cnc3c2)cc1` [Example 194, 4-(2,4-Dichloro-5-methoxyanilino)-7-(4-methoxyphenyl)-3-quinolinecarbonitrile] displayed a melting point of 210 to 212 °C. Moreover, the GI50 in data set [1] is above 10000 nM.

With `COc1cc(Nc2c(C#N)cnc3cc(-c4cnc(C=O)n4C)c(OC)cc23)c(Cl)cc1Cl` [Example 228, 4-(2,4-Dichloro-5-methoxyanilino)-7-(2-formyl-1-methyl-1H-imidazol-5-yl)-6-methoxy-3-quinolinecarbonitrile], the melting point was in the range of 141 to 144 °C. In data set [1], the GI50 is above 10000 nM.

`COc1cc(Nc2c(C#N)cnc3cc(-c4ccc(CNCCc5ccccn5)cc4)ccc23)c(Cl)cc1Cl` [Example 229, 4-(2,4-Dichloro-5-methoxyanilino)-7-[4-({[2-(2-pyridinyl)ethyl]amino}-methyl)phenyl]-3-quinolinecarbonitrile] gave a melting point of 256 to 258 °C. Also, the GI50 in data set [1] amounted to 450 nM.

For `COC(=O)C1CCN(Cc2ccc(-c3ccc4c(Nc5cc(OC)c(Cl)cc5Cl)c(C#N)cnc4c3)cc2)CC1` [Example 231, Methyl 1-{4-[3-cyano-4-(2,4-dichloro-5-methoxyanilino)-7-quinolinyl]benzyl}-4-piperidinecarboxylate], the melting point is 278 to 280 °C. Moreover, the GI50 in data set [1] worked out at 390 nM.

`COc1cc(Nc2c(C#N)cnc3cc(-c4cnc(CN5CCOCC5)n4C)c(OC)cc23)c(Cl)cc1Cl` [Example 232, 4-(2,4-Dichloro-5-methoxyanilino)-6-methoxy-7-[1-methyl-2-(4-morpholinylmethyl)-1H-imidazol-5-yl]-3-quinolinecarbonitrile] came in with a melting point of 248 to 252 °C. The GI50 in data set [1] came to 3500 nM.

`COc1cc(Nc2c(C#N)cnc3cc(-c4ccc(CN5CCOCC5)cc4)ccc23)c(Cl)cc1C` [Example 234, 4-(2-Chloro-5-methoxy4-methylanilino)-7-[4-(4-morpholinylmethyl)phenyl]3-quinolinecarbonitrile] had a melting point of 140 to 143 °C. Moreover, the GI50 in data set [1] was 720 nM.

`COc1cc(Nc2c(C#N)cnc3cc(-c4ccc(CN5CCOCC5)cc4)ccc23)c(Cl)cc1F` [Example 235, 4-(2-Chloro-4-fluoro-5-methoxyanilino)-7-[4-(4-morpholinylmethyl)phenyl]-3-quinolinecarbonitrile] came in with a melting point of 174 to 178 °C. The GI50 in data set [1] amounted to 790 nM.

In turn, `COc1ccc(Cl)c(Nc2c(C#N)cnc3cc(-c4ccc(CN5CCOCC5)cc4)ccc23)c1` [Example 236, 4-(2-Chloro-5-methoxyanilino)-7-[4-(4-morpholinylmethyl)phenyl]-3-quinolinecarbonitrile] yielded a melting point of 160 to 163 °C. For the same compound, the GI50 in data set [1] was determined as 570 nM.

Turning to `COc1cc(Nc2c(C#N)cnc3cc(-c4ccc(CN5CCC(C(=O)O)CC5)cc4)ccc23)c(Cl)cc1Cl` [Example 237, 1-{4-[3-Cyano-4-(2,4-dichloro-5-methoxyanilino)-7-quinolinyl]benzyl}-4-piperidinecarboxylic acid], the melting point was determined as 248 °C. Also, in data set [1], the GI50 is 490 nM and 520 nM and 410 nM.

The record behind these values is US20020026052A1, “3-cyanoquinolines, 3-cyano-1,6-naphthyridines, and 3-cyano-1,7-naphthyridines as protein kinase inhibitors” (American Home Products Corporation, priority 2000, published 2002).
